The results in this text go back to patent US9040563B2, “Dual inhibitors of farnesyltransferase and geranylgeranyltransferase I” (H. Lee Moffitt Cancer Center and Research Institute, Inc., priority 2010, dated 2015).

One test has as its system HPNE-K-ras. Put plainly: MTT proliferation/viability assay. The format is cell-based, human. The note with it: pancreas. On the procedure: (§1) To determine if FGTI-2734 is more efficacious than FT or GGT-1 inhibitors, 10 human cancer pancreatic cell lines, 2 human breast cancer cell lines, 2 human lung cancer cell lines and one human prostate cancer cell line were treated with these inhibitors and determined their effects on the proliferation of these cells by MTT assay.

The subject of a further test is MiaPaca. Put plainly: MTT proliferation/viability assay. The following applies: pancreas. The class given is cell-based, human. The procedure:
as §1

The subject of a further test is ASPC-1. Put plainly: MTT proliferation/viability assay. The class given is cell-based, human. The following applies: ASPC-1, pancreas. On the procedure:
as §1

The subject of another test is HPDE-C7. Put plainly: MTT proliferation/viability assay. The class given is cell-based, human. The following applies: HPDE-C7, pancreas. The procedure: as §1
The next test relates to MCF-7. Briefly: MTT proliferation/viability assay. The format is cell-based, human. The note with it: MCF-7, breast. On the procedure:
as §1

Another test relates to A549. Put plainly: MTT proliferation/viability assay. The format is cell-based, human. The note with it: A549, lung. The procedure: as §1
For a further test, the system named is HPNE. Briefly: MTT proliferation/viability assay. The format is cell-based, human. The note with it: pancreas. The procedure:
as §1

The subject of a further test is Panc-1. Put plainly: MTT proliferation/viability assay. The format is cell-based, human. The following applies: Panc-1, pancreas. On the procedure: as §1
The subject of another test is HPDE-C7-Kras. Put plainly: MTT proliferation/viability assay. The class given is cell-based, human. The note with it: pancreas. The procedure:
as §1

In a further test the test system is Capan-2. Put plainly: MTT proliferation/viability assay. The note with it: Capan-2, pancreas. The format is cell-based, human. The procedure: as §1
The next test relates to SW1990. Briefly: MTT proliferation/viability assay. The format is cell-based, human. The following applies: SW1990, pancreas. On the procedure:
as §1

The next test concerns BxPC3. Put plainly: MTT proliferation/viability assay. The format is cell-based, human. The following applies: BxPC3, pancreas. The procedure: as §1
Another test has as its target hFTase (Homo sapiens, UniProt P49354+P49356). Briefly: In vitro hFTase inhibition: incorporation of [3H]FPP into recombinant H-Ras-CVLS. The following applies: for selectivity (ratio of GGTase-I to FTase IC50s): GGTase-I IC50 / hFTase IC50; for IC50: in vitro, average of three independent assays (n = 3) unless stated, errors are standard deviations. The class given is biochemical.

A further test relates to farnesylation of H-Ras. Briefly: Whole cell inhibition of H-Ras processing (farnesylation), immunoblot, oncogenic H-Ras-transformed NIH3T3 cells. The following applies: Mus musculus, NIH3T3, whole cells, oncogenic H-Ras-transformed NIH3T3; n = 3 unless stated; read-out: H-Ras processing IC50. The class given is cell-based, mouse. The procedure: (§2) In vitro inhibition assays for FTase and GGTase-I were conducted by measuring the incorporation of [^3H]FPP and [^3H]GGPP into recombinant H-Ras-CVLS and H-Ras-CVLL, respectively, as previously described (Vogt, et al., Protein geranylgeranylation, not farnesylation, is required for the G1 to S phase transition in mouse fibroblasts. Oncogene, 1996, 13, 1991-1999). The in vivo inhibition of farnesylation and geranylgeranylation was determined based on the level of inhibition by synthetic compounds of H-Ras and Rap1A processing, respectively (Sun, et al., Both farnesyltransferase and geranylgeranyltransferase I inhibitors are required for inhibition of oncogenic K-Ras prenylation but each alone is sufficient to suppress human tumor growth in nude mouse xenografts. Oncogene, 1998, 16, 1467-1473). […] The separated proteins were transferred to nitrocellulose and immunoblotted using an anti-Ras antibody (Y13-258) or an anti-Rap1A antibody (SantaCruz Biotechnology, Santa Cruz, Calif.), respectively. Antibody reactions were visualized using either peroxidase-conjugated goat anti-rat IgG or goat anti-rabbit IgG (Jackson ImmunoResearch, West Grove, Pa.) and an enhanced chemiluminescence detection system.
(§3) Briefly, in vitro inhibition assays for hFTase and GGTase-I were carried out by measuring the incorporation of [^3H]FPP and [^3H]GGPP into recombinant H-Ras-CVLS and H-Ras-CVLL, respectively, as described previously (Vogt et al., Protein geranylgeranylation, not farnesylation, is required for G1 to S phase transition in mouse fibroblasts. Oncogene. 1996; 13:1991-1999). Whole cell inhibition of farnesylation and geranylgeranylation were determined based on the level of inhibition by synthetic compounds of H-Ras and Rap1A processing, respectively (Sun, et al., Both farnesyltransferase and geranylgeranyltransferase I inhibitors are required for inhibition of oncogenic K-Ras prenylation but each alone is sufficient to suppress human tumor growth in nude mouse xenografts. Oncogene. 1998; 16:1467-1473).

Test [1] concerns geranylgeranylation of Rap1A. Briefly: Whole cell inhibition of Rap1A processing (geranylgeranylation), immunoblot, oncogenic H-Ras-transformed NIH3T3 cells. The class given is cell-based, mouse. The following applies: whole cells, oncogenic H-Ras-transformed NIH3T3, n = 3 unless stated, read-out: Rap1A processing IC50. On the procedure: as §2, §3
Another test deals with GGTase-I (Homo sapiens, UniProt P49354+P53609). Briefly: In vitro GGTase-I inhibition: incorporation of [3H]GGPP into recombinant H-Ras-CVLL. The format is biochemical. The note with it: average of n = 3 unless stated, errors are standard deviations, read-out: GGTase-1 IC50.
Test [2] deals with Rap-1A geranylgeranylation. Put plainly: Western blot of Rap-1A geranylgeranylation/processing (antibody to un-geranylgeranylated Rap-1A) in treated cells. The format is cell-based. The following applies: NIH-3T3 overexpressing mutant K-Ras and MDA-MB-231; FIGS. 14, 15. On the procedure:
The ability of FGTI-2734 to inhibit HDJ-2 farnesylation and Rap-1A geranylgeranylation in human cancer cells was determined next. To this end, the MiaPaca pancreatic cancer cell line and 2 breast cancer cell lines (MDA-MB-468 and MDA-MB-231) were treated with various concentration of the dual inhibitor FGTI-2734, the GGT-1 inhibitor GGTI-2418 or the FT inhibitor FTI-2153 and processed for Western blotting.
Testing has shown that the dual farnesyltransferase and geranygeranyltransferase-I inhibitors are effective on pancreatic tumors (90% of all cases), colonic tumors (30% of all cases), lung tumors (30% of all cases), and breast tumors (10% of all cases). NIH-3T3 cells that overexpress oncogenic mutant K-Ras, seen in FIG. 14, and MDA-MB-231 breast cancer cells with a naturally occurring K-Ras mutation, seen in FIG. 15, were treated with indicated concentrations of FGTI-2734, GGTI-2417 or FTI-2153. FGTI-2734 but not FTI-2153 or GGTI-2417 inhibited K-Ras prenylation. As expected, GGTI-2417 inhibited the processing of Rap1 but not HDJ-2 whereas FTI-2153 inhibited the processing of HDJ-2 but not Rap1.
Mammalian target of rapamycin (mTOR) is a serine/threonine phosphatidylinositol 3-kinase-related kinase responsible for cell growth, proliferation, cell survival, protein synthesis, and transcription. Alteration of the mTOR pathway, either through activation of oncogenes or inactivation of tumor suppressors, disrupts a signaling equilibrium and causes malignant transformation. Studies have shown that phosphorylated S6 (pS6) is related to mTOR pathway alterations, and is useful in determining PI3K-based cancer therapies (Aziz, et al. Phosphatidylinositol-3-Kinase as a Therapeutic Target in Melanoma. Clin Cancer Res. 2009, 15; 3029-3036). Two breast adenocarcinoma and a pancreatic carcinoma cell line were treated with indicated concentrations of FGTI-2734, GGTI-2417 or FTI-2153. Protein extracts were run on a Western Blot using antibody against pS6 (ser240/244) (Cell Signaling Technology, Inc., Danvers, Mass.). […]

Where “and” joins values, the source holds several entries; their conditions need not be identical. Equal values may be shown once. Read-outs that look alike come from different tables or passages of the source. A value given as a limit tells only on which side of the number the result lay.

For `CSCC[C@H](NC(=O)c1ccc(CNCc2cnc[nH]2)cc1-c1ccccc1C)C(=O)O` [FTI-2148], the IC50 was more than 100 µM in the test with HPNE-K-ras; 1.2 µM with MiaPaca; more than 100 µM in the test on ASPC-1; more than 100 µM with HPDE-C7; > 100 µM and 50 µM in the test on MCF-7; more than 100 µM with A549. Moreover, the IC50 with HPNE, with Panc-1, with HPDE-C7-Kras, in the test on Capan-2, with SW1990 and with BxPC3 was more than 100 µM throughout.
`Cn1cnc(S(=O)(=O)N(CCN(Cc2cncn2C)c2ccc(Br)cc2)Cc2ccccc2)c1` [compound 5]: on hFTase, the “selectivity (ratio of GGTase-I to FTase IC50s)” value is reported as 6.7. In addition, the IC50 is 0.079 ± 0.03 µM at hFTase, 1.6 ± 1.3 µM in the test on farnesylation of H-Ras, more than 10 µM in [1] and 0.53 ± 0.17 µM at GGTase-I.
Regarding `Cn1cnc(S(=O)(=O)N(CCN(Cc2cnc[nH]2)c2ccc(Br)cc2)Cc2ccccc2)c1` [compound 4], the “selectivity (ratio of GGTase-I to FTase IC50s)” value on hFTase is reported as 6.0. The IC50 is 0.73 ± 0.02 µM on hFTase, 5.7 ± 1.2 µM in the test on farnesylation of H-Ras, more than 10 µM in test [1] (Mus musculus) and 4.4 µM at GGTase-I.
For `CCCS(=O)(=O)N(CCN(Cc1cncn1C)c1ccc(C#N)cc1)Cc1ccccc1` [compound 1b, N-Benzyl, N-{2-[(4-cyanophenyl)-(3-methyl-3H-imidazol-4-ylmethyl)-amino]-ethyl}propane-1-sulfonamide], the “selectivity (ratio of GGTase-I to FTase IC50s)” value at hFTase is given as 85. Moreover, the IC50 is 0.048 ± 0.035 µM on hFTase, more than 10 µM in test [1] (Mus musculus) and 4.1 ± 1.7 µM on GGTase-I.
As for `COC(=O)[C@H](CC(C)C)NC(=O)N1CCN(Cc2nc[nH]c2C)C(=O)[C@@H]1Cc1ccccc1` [GGTI-2417, reference compound], the “inhibition of Rap1 processing” value in [2] was “inhibited”.
On to `Cn1cnc(S(=O)(=O)N(CCN(Cc2cncn2C)c2ccc(C#N)cc2)CC2CCN(C(=O)OC(C)(C)C)CC2)c1` [1ay], for which the “selectivity (ratio of GGTase-I to FTase IC50s)” value at hFTase is listed as more than 2.7. Besides, the concentration for half-maximal inhibition (IC50) (in the test with farnesylation of H-Ras; in [1] (Mus musculus)) was more than 2 µM each time.
Regarding `Cn1cncc1CN(CCN(Cc1ccccc1)S(=O)(=O)c1cccc2cccnc12)c1ccc(C#N)cc1` [1g], on hFTase (selectivity for hFTase over GGTase-I), the GGTase-I/FTase selectivity is listed as 333 fold. For the same molecule, the IC50 is more than 10 µM in [1] (Mus musculus) and not below 10 µM at GGTase-I.
Consider `CN(C)c1cccc2c(S(=O)(=O)N(CCN(Cc3cncn3C)c3ccc(C#N)cc3)Cc3ccccc3)cccc12` [1h], for which, on hFTase, the “selectivity (ratio of GGTase-I to FTase IC50s)” value is on record as 63. Also, the figures for the half-inhibitory concentration (IC50) (with farnesylation of H-Ras; in [1] (Mus musculus); on GGTase-I) were 0.5 ± 0.3 µM, more than 10 µM and not below 10 µM, respectively.
`Cn1cnc(S(=O)(=O)N(CCN(Cc2cncn2C)c2ccc(C#N)cc2)CCn2cccc2)c1` [1ag]: the “selectivity (ratio of GGTase-I to FTase IC50s)” value at hFTase turned out to be 17. Besides, the IC50 in the test with farnesylation of H-Ras was 4.3 ± 1.5 µM; in test [1] (Mus musculus), more than 10 µM.
Taken in the same sequence, the figures for `C=C(Br)CN(CCN(Cc1cncn1C)c1ccc(C#N)cc1)S(=O)(=O)c1cn(C)cn1` [1ad] were 31, 5.7 ± 1.5 µM and more than 10 µM.
With `Cn1cncc1CN(CCN(Cc1ccccc1)S(=O)(=O)C1CC1)c1ccc(C#N)cc1` [1c, N-Benzyl, N-{2-[(4-cyanophenyl)-(3-methyl-3H-imidazol-4-ylmethyl)-amino]-ethyl}cyclopropanesulfonamide], on hFTase, the “selectivity (ratio of GGTase-I to FTase IC50s)” value is recorded as 65 and the IC50 stood at 0.085 ± 0.0007 µM. Further, the IC50 on GGTase-I was determined as 5.5 ± 2.7 µM.
`C#CCN(CCN(Cc1cncn1C)c1ccc(C#N)cc1)S(=O)(=O)c1cn(C)cn1` [1aa]: the “selectivity (ratio of GGTase-I to FTase IC50s)” value at hFTase was more than 14. Besides, the IC50 in the test with farnesylation of H-Ras is 6 µM; in test [1] (Mus musculus), more than 10 µM.
For the molecule `Cc1nn(C)c(C)c1CN(CCN(Cc1cncn1C)c1ccc(C#N)cc1)S(=O)(=O)c1cn(C)cn1` [compound 1an, [N-(1,3,5-Trimethyl-1H-pyrazol-4-ylmethyl), N-{2-[(4-cyanophenyl)-(3-methyl-3H-imidazol-4-ylmethyl)-amino]-ethyl}]1-methyl-1H-imidazole-4-sulfonamide], at hFTase, the “selectivity (ratio of GGTase-I to FTase IC50s)” value is more than 1.9 and the IC50 was 5.3 ± 1.7 µM. Further, the IC50 on GGTase-I is more than 10 µM.
For the molecule `Cn1cncc1CN(CCN(Cc1ccccc1)S(=O)(=O)c1cccs1)c1ccc(C#N)cc1` [1e], on hFTase, the “selectivity (ratio of GGTase-I to FTase IC50s)” value was found to be 200. The results for the IC50 (in test [1] (Mus musculus); on GGTase-I) were more than 10 µM and not below 10 µM, respectively.
Consider `Cn1cnc(S(=O)(=O)N(CCN(Cc2cncn2C)c2ccc(C#N)cc2)Cc2ccc(C#N)cc2)c1` [1as], for which the “selectivity (ratio of GGTase-I to FTase IC50s)” value on hFTase amounted to 18. In addition, the IC50 (with farnesylation of H-Ras; in [1] (Mus musculus)) was more than 10 µM throughout.
